Results published in patent publication US20040115800A1, “Selectable marker for genetically engineered cells and tissues” (priority 2003, published 2004).

Columns and labels:
A549-CD-IRES-EGFP cells = test: Growth inhibition assay (MTT), CD gene-modified A549 cells; format: cell-based, human; details: for % cell survival: 4 days, MTT
Procedure: (§1) . […] Five days following the last transduction round, flow cytometry analysis was performed to determine gene transfer efficiency and transgene expression as evaluated by GFP fluorescence. Stably transduced A549-CD-IRES-EGFP cells were subsequently expanded in complete media only, as well as in the presence of two different concentrations of ARA-C, 1 μM and 2.5 μM, for 12 days.
(§2) Gene-modified A549 cells were plated in 96-well flat-bottom tissue culture dishes at a density of 1500 cells per well. Various concentrations of ARA-C or dFdC (Lilly Research Laboratories, Indianapolis, Ind.) were added to cells in a final volume of 100 μl RPMI/10% FBS. Cells were placed at 37° C. and 4 days later exposed to 20 μl of a solution containing 3-(4,5-deimethylthiazol-2-yl)-2,5-diphenyltetrazolium bromide, i.e. MTT, for 4 hours at 37° C., and subsequently to 100 μl of a solubilization buffer (50% N,N-dimethylformamide, 20% SDS) for approximately 15 hours. The optical density was then measured at 570 nm with reference at 630 nm using a multi-well plate reader, thus providing an assessment of the percentage of surviving cells based on the cleavage of MTT by the mitochondrial dehydrogenases of living cells to the detectable formazan. Percent cell survival was ascertained using the following equation: [formula]

[1] = test system: primary mouse marrow stromal cells; test: In vitro selection and enrichment assay of CD gene-modified marrow stroma (flow cytometry); format: cell-based; details: for % GFP+ cells: 10% CD-IRES-EGFP stroma mixture (11.7% without ARA-C); for mean GFP fluorescence: 10% CD-IRES-EGFP stroma mixture (13.0±3.0 without ARA-C)
Procedure: One female C57BI/6 mouse was sacrificed by CO2 inhalation and bone marrow cells harvested by flushing the hind leg femurs and tibias with DMEM™ supplemented with 10% FBS and 50 U/ml Pen/Strep. Whole marrow was plated in 10 cm (diameter) tissue culture dishes and five days later, the nonadherent hematopoietic cells were discarded and the adherent bone marrow stromal cells cultured (for ˜3 months) at 37° C. with 5% CO2. Supernatant containing virions from subconfluent GP+envAM12-CD-IRES-EGFP or from control GP+envAM12-Neo^R-IRES-EGFP producers was placed over marrow stromal cells plated at subconfluence. Transduction was carried out twice a day for three successive days in the presence of 6 μg/ml Lipofectamine™. Over 72 hours pursuing to the last transduction round, flow cytometry analysis for GFP expression was performed to evaluate the gene transfer efficiency.
Drug exposure was ceased 7 days later, and cells expanded for an additional week in DMEMI with 10% FBS and 50U/ml Pen/Strep and analysed by flow cytometry analysis. […] Pursuant to a 1-week drug exposure (preventing total confluence by cell passaging) and subsequent week of cell expansion, percent GFP positive cells and mean GFP fluorescence were evaluated by flow cytometry analysis.

A549-IRES-EGFP cells = test: Growth inhibition assay (MTT), control-vector A549 cells; format: cell-based, human; details: 4 days
Procedure: as §1, §2

[2] = test system: primary human lymphocytes transduced with IRES-EGFP; test: Growth suppression assay (trypan blue), control-vector lymphocytes; format: cell-based; details: two weeks
Description: (§3) Primary human lymphocytes were isolated from peripheral blood by Ficoll Hypaque™ centrifugation and plated at a cell density of ˜1×10^6 cells/ml in RPMI supplemented with 10% FBS, 50 U/ml Pen/Strep, and 200 U/ml human IL-2. The next day, lymphocytes were activated with phytohemagglutinin (PHA) for 72 hrs and subsequently co-cultivated over subconfluent 293GPG-CD-IRES-EGFP or control 293GPG-IRES-EGFP virus producers tetracycline withdrawn three days earlier for optimal high titer virion generation. Lipofectaminel was added for a final concentration of 6 μg/ml, and co-cultivation permitted to proceed for 48 hours. Lymphocytes were then carefully collected and three days later plated at a density of 600 000 cells per well of 48-well tissue culture dishes in the absence or presence of various concentrations of ARA-C in a final volume of 800 μl) complete media. After a two week period, viable cells were enumerated by trypan blue exclusion and cell survival measured as such: % cell survival=(number of cells in test well/number of cells grown in media only)×100. (Flow cytometry analysis for CD3 expression was conducted and all cells confirmed to be lymphocytes.)

[3] = test system: 2.5 μM ARA-C selected A549-CD-IRES-EGFP cells; test: Growth inhibition assay (MTT), ARA-C-selected CD gene-modified A549 cells; format: cell-based, human; details: 4 days
Procedure: as §1, §2

untransduced A549 cells = test: Growth inhibition assay (MTT), parental A549 cells; format: cell-based, human; details: 4 days
Procedure: A549 human lung carcinoma cells, obtained from American Type Culture Collection (ATCC), were maintained in RPMI 1640 medium (Canadian Life Technologies) supplemented with 10% heat-inactivated FBS.
as §2

[4] = test system: primary human lymphocytes transduced with CD-IRES-EGFP; test: Growth suppression assay (trypan blue), CD gene-modified lymphocytes; format: cell-based; details: two weeks
Description: as §3

Structure (SMILES)	survival of A549-CD-IRES-EGFP relative to control cells (A549-CD-IRES-EGFP cells; ARA-C 1 μM)	% cell survival (A549-CD-IRES-EGFP cells; ARA-C 1 μM, A549-CD-IRES-EGFP without post-transduction drug selection) [%]	% GFP+ cells ([1]; 0.25 μM ARA-C 1 week + 1 week culture) [%]	% GFP+ cells ([1]; 2.5 μM ARA-C 1 week + 1 week culture) [%]	effect on untransduced and NeoR-IRES-EGFP modified stroma ([1]; ARA-C 2.5 μM (printed 2.5 CM))	mean GFP fluorescence ([1]; selected in 1 μM ARA-C)	mean GFP fluorescence ([1]; selected in 2.5 μM ARA-C)	% cell survival (A549-IRES-EGFP cells; ARA-C 1 μM) [%]	% cell survival ([2]; ARA-C 1 μM, IRES-EGFP transduced lymphocytes) [%]	% cell survival ([2]; ARA-C 5 μM, IRES-EGFP-modified lymphocytes) [%]	% cell survival ([3]; ARA-C 1 μM, CD-modified A549 previously selected in 2.5 μM ARA-C for 12 days, MTT) [%]	% cell survival (untransduced A549 cells; ARA-C 1 μM, untransduced A549, MTT) [%]	% cell survival ([4]; ARA-C 1 μM) [%]	% cell survival ([4]; ARA-C 5 μM) [%]	% cell survival (A549-CD-IRES-EGFP cells; dFdC 1 μM, unselected A549-CD-IRES-EGFP) [%]	% cell survival (A549-CD-IRES-EGFP cells; dFdC same concentration (0.1), A549-CD-IRES-EGFP unselected) [%]	% cell survival (A549-IRES-EGFP cells; dFdC 0.1M (so in the source)) [%]	% cell survival ([3]; dFdC 0.1 μM, 2.5 μM ARA-C selected CD-IRES-EGFP modified A549, MTT) [%]	% cell survival ([3]; dFdC 1 μM, 2.5 μM ARA-C selected cells, MTT) [%]	% cell survival (untransduced A549 cells; dFdC 0.1M (so in the source), A549, MTT) [%]
Nc1ccn([C@@H]2O[C@H](CO)[C@@H](O)[C@@H]2O)c(=O)n1 [ARA-C, cytosine arabinoside]	over 3 fold	47.4±1.9	51.5	99.6	completely eradicate	48.3±6.5	99.3±3.3	10.6±0.4	5.5±1.7	0.1±0.1	70.7±1.3	15.3±0.6	87.5±7.2	98.1 ± 4.2	–	–	–	–	–	–
Nc1ccn([C@@H]2O[C@H](CO)[C@@H](O)C2(F)F)c(=O)n1 [dFdC]	–	–	–	–	–	–	–	–	–	–	–	–	–	–	17.2±0.7	86.4±2.4	10.7±0.4	92.1±1.7	53.3±1.8	15.1±0.5
